Reference: US20240050587A1, “LIPOSOMES COMPRISING ANTI-LOX ANTIBODY” (ISTITUTO SCIENTIFICO ROMAGNOLO PER LO STUDIO E LA CURA DEI …, priority 2019, published 2024)
Counter-ions that a name gives are not always drawn.

Key:
[1] = human, clinical data [28]; cited from earlier work
[2] = Safety: body weight change and H&E histology of hearts; assay type: in vivo, NU/NU nude mice
Procedure: (§1) Tumor size and body weight were measured with caliper and a digital balance once a week. Tumor volume was calculated according to the formula (W×W×L)/2, where W and L represent the width and the length of tumor, respectively. Body weight change % was calculated were calculated by comparing weights at the start and end of therapy throught the formula throught the formula weight DO/weight D33%.
(§2) Explanted mice organs (heart, liver, spleen, kidneys, lungs, tibia) and tumors were washed twice with PBS, embedded in a cryomold in O.C.T. (Tissue-Tek® O.C.T. Compound, Sakura® Finetek), and frozen at −80 degree. Ten μm-thick slides were obtained cutting tissues block with a cryostat at −20 degree. The slides were then stored at −20 degree until the analysis.
(§3) Hematoxylin and eosin (H&E) staining was performed to evaluate the efficacy and safety of Lipo-EPI-LOX compared to the other treatment groups. Briefly the organs and tumor slides were thawed, hydrated and stained with H&E following the manufacturer's instructions. The stained slides were analyzed with an optical Zeiss Axioskop microscope (Carl Zeiss, Gottingen, Germany) equipped with a Polaroid camera.

[3] = tested on: MDA-MB-231 orthotopic xenograft; test: In vivo drug testing: tumor growth in orthotopic xenograft (caliper and BLI); set-up: species or system NU/NU nude mice; conditions: weekly i.v. 3.24 mg/Kg; caliper; mean ± spread
Procedure: MDA-MB-231 labeled with luciferase probe (2×10^6 cells/100 μl matrigel) were orthotopically injected into the right mammary fad pad of female immunodeficient NU/NU nude mice [NU-Foxn1nu] 8-10 weeks old (Charles River Laboratories, Wilmington, MA, USA). NU/NU nude mice were housed five per cage at the HMRI animal facility, there were maintained under pathogen free conditions and on low-fluorescence diet according to the National Institutes of Health guidelines.
as §1
Furthermore, the impact on tumor growth was validated by performing bioluminescence imaging (BLI) of TNBC tumors at Day 0 and Day 33 (FIG. 4B, Figure S4 supportive information). This was performed in order to support the caliper measurements since the bioluminescent signal obtained from BLI is directly related to the viability of cells and could serve as metric to evaluate impact of therapy. The BLI quantification percentage was calculated throught the formula BLI DO/BLI D33%. […]

[4] = tested on: collagen scaffold cultured with MDA-MB-231; test: Mechanical testing: stiffness of collagen scaffolds under unconfined uniaxial compression; assay type: cell-based, human; conditions: 72 h of treatment; CTR 67.3 kPa
Text: As previously described, an in-house built instrument prototype was developed by the inventors to apply a state of unconfined uniaxial compression to the collagen scaffolds. The applied stress (r, in kPa) could then be analyzed by dividing the applied force by the cross section of the sample. The applied force consisted of a pre-load of 1.41 kPa held constantly for 30 s; the full load of 5.97 kPa was then constantly applied for 30 s. The stiffness (compressive modulus, in kPa) of the collagen scaffold cultured with MDA-MB-231 and exposed for 72 h to all treatment groups was computed as the ratio between the increment of stress and increment of strain from the preload to the full load values. The samples were analyzed in air immediately after having been removed from the PBS where they were soaked. Five samples of each type were tested and each specimen was tested 10 times.

[5] = tested on: MDA-MB-231 orthotopic xenograft; test: Histological analysis (H&E) and collagen quantification of explanted tumors; assay type: in vivo, NU/NU nude mice; conditions: H&E sections of explanted tumors, 55 days post treatment; control 5%
Procedure: as §2, §3
Tumors frozen 5-μm-thick slides were fixed for 5 min in formalin 10% solution, then washed and stained with Weigert's haematoxylin. Then the sections were stained with 0.1% (Direct Red 80) (Sigma Aldrich) picrosirius red in saturated aqueous solution of picric acid. The stained slides were analyzed with the NIS Elements software (Nikon Corporation, Tokyo, Japan).

[6] = tested on: MDA-MB-231 orthotopic xenograft; test: Survival study (Kaplan-Meier); assay type: in vivo, NU/NU nude mice; conditions: 55 days post treatment
Procedure: Mice (n=10 per cohort) were sacrificed when the tumor volume reached 2000 mm^3 or when showing signs of morbidity. Data were analyzed using the Kaplan-Meier method. Comparisons among different treatment groups were performed using the log rank test for trend and considered significant with a p value less than 0.05.

Compound: COc1cccc2c1C(=O)c1c(O)c3c(c(O)c1C2=O)C[C@@](O)(C(=O)CO)C[C@@H]3O[C@H]1C[C@H](N)[C@@H](O)[C@H](C)O1 [Free EPI, epirubicin hydrochloride]
- plasma peak concentration [1]: 3.4 µg/mL
- inflammatory infiltrate in myocardial tissue (cardiotoxicity) ([2]; H&E hearts): increment of cellularity due to the inflammatory infiltrate
- increase in body weight ([2]; end of study, D33 versus D0, CTR 3.3%): 3.7%
- tumor volume (tumor growth) [3]: 1029 mm^3
- average compressive modulus (scaffold stiffness) [4]: 64.38 kPa
- necrotic tumor cells [5]: 20%
- survival [6]: less than 50%
